Patent US9283222B2 (priority 2006, dated 2016)
Read-outs that look alike come from different tables or passages of the source.

What was measured:
PARP in C41 cells [1] = molecular target: T1, PARP in C41 cells (Homo sapiens (Human), UniProt P09874); assay: cell-based
[2] = molecular target: Recombinant Human Poly(ADP-Ribose) Polymerase (PARP), PARP-1 (Homo sapiens (Human), UniProt P09874); settings: read-out: PARP-1 (Ki); Table 3; H analogs versus para-F analogs
PARP in C41 cells [3] = molecular target: T1, PARP in C41 cells
[4] = Table 3, C41 cells, ratio to comparator EC50

T1 sequence (P09874 whole entry): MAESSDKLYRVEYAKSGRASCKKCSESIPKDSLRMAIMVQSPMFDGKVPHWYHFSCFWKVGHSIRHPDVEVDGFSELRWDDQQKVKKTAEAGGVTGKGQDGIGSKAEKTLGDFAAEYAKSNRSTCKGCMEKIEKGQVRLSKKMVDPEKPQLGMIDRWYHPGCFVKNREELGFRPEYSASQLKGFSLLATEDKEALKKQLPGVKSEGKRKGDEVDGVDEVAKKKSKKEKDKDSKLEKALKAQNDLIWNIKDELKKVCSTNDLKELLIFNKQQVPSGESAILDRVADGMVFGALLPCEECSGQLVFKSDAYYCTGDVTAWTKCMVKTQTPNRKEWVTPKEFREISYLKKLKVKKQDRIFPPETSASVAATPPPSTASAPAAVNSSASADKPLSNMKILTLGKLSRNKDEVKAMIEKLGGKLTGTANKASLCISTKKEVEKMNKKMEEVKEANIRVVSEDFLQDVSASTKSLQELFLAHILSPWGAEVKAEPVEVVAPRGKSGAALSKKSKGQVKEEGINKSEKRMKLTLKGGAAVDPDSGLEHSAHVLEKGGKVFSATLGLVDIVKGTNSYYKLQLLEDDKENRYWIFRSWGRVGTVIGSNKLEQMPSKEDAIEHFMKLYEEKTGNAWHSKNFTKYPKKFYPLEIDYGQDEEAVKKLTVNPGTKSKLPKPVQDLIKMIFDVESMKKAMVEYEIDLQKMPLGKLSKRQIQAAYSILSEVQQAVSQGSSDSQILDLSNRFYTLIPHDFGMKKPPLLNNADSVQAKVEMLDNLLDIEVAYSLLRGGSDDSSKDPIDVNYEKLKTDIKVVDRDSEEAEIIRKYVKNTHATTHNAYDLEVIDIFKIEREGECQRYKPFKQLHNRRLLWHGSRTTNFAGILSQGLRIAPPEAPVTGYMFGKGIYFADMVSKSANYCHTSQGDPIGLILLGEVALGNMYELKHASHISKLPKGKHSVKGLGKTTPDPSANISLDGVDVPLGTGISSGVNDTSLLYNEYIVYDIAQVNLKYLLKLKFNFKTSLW
Sequence of Recombinant Human Poly(ADP-Ribose) Polymerase (PARP), PARP-1 (P09874 whole entry): as above

Row | EC50 (PARP in C41 cells [1]; EC50 generally ranged, range over all assays) [nM] | EC50 (PARP in C41 cells [1]; mean EC50 for all assays carried out, n=270) [nM] | Compound | Ki [2] [nM] | Cell EC50 ratio (PARP in C41 cells [3]; [4]) | Cell EC50 ratio (PARP in C41 cells [3])
1 | 1 to 13 | 3.2 | CCCN1CCC(c2nc3cccc(C(N)=O)c3[nH]2)CC1 |  |  | 
2 |  |  | O=C(c1cccc(Cc2n[nH]c(=O)c3c2CCCC3)c1)N1CCN(c2ccccc2Cl)CC1 [drawing 36] | 10 | 15 | 
3 |  |  | O=C(c1cc(Cc2n[nH]c(=O)c3c2CCCC3)ccc1F)N1CCN(c2ccccc2Cl)CC1 [drawing 37] | 5 | 6 | 
4 |  |  | O=C(c1cc(Cc2n[nH]c(=O)c3c2CCCC3)ccc1F)N1CCN(c2ccccc2F)CC1 [drawing 39] | 13 | 1.3 | 
5 |  |  | O=C(c1cccc(Cc2n[nH]c(=O)c3c2CCCC3)c1)N1CCN(c2ccc(F)cc2)CC1 [drawing 40] | 6 | 2.2 | 
6 |  |  | O=C(c1cc(Cc2n[nH]c(=O)c3c2CCCC3)ccc1F)N1CCN(c2ccc(F)cc2)CC1 [drawing 41] | 4 |  | 0.8
7 |  |  | CN1CCCN(C(=O)c2cccc(Cc3n[nH]c(=O)c4c3CCCC4)c2)CC1 [drawing 42] | 10 | 3.8 | 
8 |  |  | CN1CCCN(C(=O)c2cc(Cc3n[nH]c(=O)c4c3CCCC4)ccc2F)CC1 [drawing 43] | 1.5 |  | 0.6
9 |  |  | NC(=O)C1CCCN(C(=O)c2cc(Cc3n[nH]c(=O)c4c3CCCC4)ccc2F)C1 (stereo not shown) [drawing 45] | 3 | 28 | 
10 |  |  | O=C(c1cccc(Cc2n[nH]c(=O)c3c2CCCC3)c1)N1CCC(O)CC1 [drawing 46] | 5 | 13 | 
11 |  |  | O=C(c1cc(Cc2n[nH]c(=O)c3c2CCCC3)ccc1F)N1CCC(O)CC1 [drawing 47] | 1.3 | 2 | 
12 |  |  | NC(=O)C1CCN(C(=O)c2cccc(Cc3n[nH]c(=O)c4c3CCCC4)c2)CC1 [drawing 48] | 5 | 215 | 
13 |  |  | NC(=O)C1CCN(C(=O)c2cc(Cc3n[nH]c(=O)c4c3CCCC4)ccc2F)CC1 [drawing 49] | 2.7 | 25 | 
14 |  |  | CCN(CC)C(=O)C1CCCN(C(=O)c2cc(Cc3n[nH]c(=O)c4c3CCCC4)ccc2F)C1 (stereo not shown) [drawing 51] | 6 | 17 | 
15 |  |  | CN(C)CCN(C)C(=O)c1cc(Cc2n[nH]c(=O)c3c2CCCC3)ccc1F [drawing 53] | 3.6 | 0.7 | 
16 |  |  | CN1CCN(CCNC(=O)c2cccc(Cc3n[nH]c(=O)c4c3CCCC4)c2)CC1 [drawing 54] | 24 | 31 | 
17 |  |  | CN1CCN(CCNC(=O)c2cc(Cc3n[nH]c(=O)c4c3CCCC4)ccc2F)CC1 [drawing 55] | 1.1 | 0.6 | 
